Several values for one entry are separate records, joined by “and”; a condition that tells them apart may be missing. Identical values can stand only once.
Tests used:
H358 cells = experiment: Non-hypoxic/hypoxic cytotoxicity, cell count with Trypan blue; format: cell-based, human; conditions: hypoxic 1 % O2 relative to normoxic, 24 h, Fig. 2A
H358 = experiment: MTT cytotoxicity assay, H358 NSCLC cells; format: cell-based, human; conditions: read-out: IC50 (µM) H358, 96-h incubation
H226 = experiment: MTT cytotoxicity assay, H226 NSCLC cells; format: cell-based, human; conditions: read-out: IC50 (µM) H226, 96-h incubation
C57 BL/6 mice = experiment: Maximum tolerable dose, i.p. injection; format: in vivo, mouse; conditions: dose level causing no deaths, chloride salt
[1] = test system: supercoiled plasmid pUC18 DNA; conditions: cited from earlier work
[2] = cited from earlier work; for potential of tatpp-based reductive processes: vs. NHE at pH 7.0
mice = conditions: cited from earlier work
[3] = test system: acetyl cholinesterase (AChE); conditions: in vitro and in vivo; cited from earlier work
[4] = Water solubility of the salts; conditions: chloride salts
[5] = radiolabeled complex, in vivo; cited from earlier work
HUVEC [6] = experiment: Cytotoxicity towards normal HUVEC cells; format: cell-based, human
HUVSMC [7] = experiment: Cytotoxicity towards normal HUVSMC cells; format: cell-based, human; conditions: read-out: IC50 for normal HUVSMC cells
NCI-60 panel = experiment: NCI-60 cell line one-dose screen; format: cell-based; conditions: single dose 10 µM
[8] = test system: supercoiled plasmid pUC18 DNA; experiment: DNA cleavage assay; format: biochemical
HUVEC [9] = experiment: Apoptosis, caspase-cleavage and TUNEL, HUVEC; format: cell-based, human; conditions: 10 µM
HUVSMC [10] = experiment: Apoptosis, HUVSMC; format: cell-based, human; conditions: similar treatment
[11] = test system: pAKT, pEGFR, PI3K, pRb, CDK4, cyclinB1, bcl2, Bax in H358 cells; experiment: Western blot of apoptotic, proliferative and tumor suppressor proteins; format: cell-based, human; conditions: H358, 10 µM, 24 h, Fig. 2D

Row | Compound | IC50 (H358) | IC50 (H226) | Maximum Tolerable Dose MTD (mg complex /kg mouse) (C57 BL/6 mice) | Maximum Tolerable Dose MTD µmol complex /kg mouse (C57 BL/6 mice) | further results
1 | [Ru(phen)2(dppz)]^2+ |  |  |  |  | potentiation of cytotoxicity under hypoxic conditions (H358 cells): neither of which showed significant potentiation
2 | [Ru+2].c1cnc2c(c1)ccc1cccnc12.c1cnc2c(c1)ccc1cccnc12.c1cnc2c(c1)ccc1cccnc12 [Δ-1^2+, Δ-[Ru(phen)3]^2+] | 64.8 ± 4.2 µM | 93.6 ± 6.3 µM |  |  | 
3 | ΛΛ-[(phen)2Ru(tatpp)Ru(phen)2]^4+ [ΛΛ-4^4+] | 16.7 ± 1 µM | 17.3 ± 1.5 µM | 66 mg complex /kg mouse | 43 µmol complex /kg mouse | 
4 | [Ru+2].c1cnc2c(c1)ccc1cccnc12.c1cnc2c(c1)ccc1cccnc12.c1cnc2c(c1)ccc1cccnc12 [1^2+, rac-[Ru(phen)3]^2+] | 90 µM and 86.7 µM | 90 µM and 92.8 µM | 6.6 mg complex /kg mouse | 9.1 µmol complex /kg mouse | DNA cleavage activity upon in situ reduction by glutathione [1]: nor do they exhibit any DNA cleavage activity; reduction potential required [2]: ≤ −0.70 V; minimum lethal dose (mice; iodo salt, mice, i.p. injection): 12 µmol/kg; toxicity when administered orally (mice; oral): non-toxic; inhibition of acetyl cholinesterase (AChE) [3]: competitive inhibitor
5 | mix-[(phen)2Ru(tatpp)Ru(phen)2]^4+ [4^4+] | 15.2 ± 1.8 µM | 16.2 ± 1.9 µM | 66 mg complex /kg mouse | 43 µmol complex /kg mouse | DNA cleavage activity upon in situ reduction by glutathione [1]: effective DNA cleaving agent; potential of tatpp-based reductive processes [2]: > −0.25 V; water solubility [4]: water soluble
6 | mix-[(phen)2Ru(tpphz)Ru(phen)2]^4+ [2^4+] | 41.8 ± 2.7 µM | 51.1 ± 3.4 µM | 3.3 mg complex /kg mouse | 2.5 µmol complex /kg mouse | DNA cleavage activity upon in situ reduction by glutathione [1]: nor do they exhibit any DNA cleavage activity; reduction potential required [2]: ≤ −0.70 V; water solubility [4]: water soluble
7 | [Ru+2].c1cnc2c(c1)ccc1cccnc12.c1cnc2c(c1)ccc1cccnc12.c1cnc2c(c1)ccc1cccnc12 [Λ-1^2+, Λ-[Ru(phen)3]^2+] | 61.4 ± 4.7 µM | 116 ± 6.9 µM |  |  | 
8 | [106Ru+2].c1cnc2c(c1)ccc1cccnc12.c1cnc2c(c1)ccc1cccnc12.c1cnc2c(c1)ccc1cccnc12 [[^106Ru(phen)3]^2+] |  |  |  |  | recovery in the urine [5]: nearly all the complex was recovered in the urine
9 | Λ-[(phen)2Ru(tatpp)]^2+ [Λ-3^2+] | 13.8 ± 1.5 µM | 13 ± 2 µM |  |  | 
10 | [Ru+2].c1ccc(-c2ccccn2)nc1.c1ccc(-c2ccccn2)nc1.c1ccc(-c2ccccn2)nc1 [rac-[Ru(bpy)3]^2+, reference compound] | 209 ± 16 µM | 198 ± 15 µM |  |  | 
11 | rac-[(phen)2Ru(tatpp)]^2+ [3^2+] | 13.2 ± 1.8 µM | 12.5 ± 1.9 µM | 67 mg complex /kg mouse | 65 µmol complex /kg mouse | potential of tatpp-based reductive processes [2]: > −0.25 V; water solubility [4]: water soluble
12 | ΔΔ-[(phen)2Ru(tatpp)Ru(phen)2]^4+ [ΔΔ-4^4+] | 9.5 ± 1.2 µM | 9.3 ± 0.9 µM | 100 mg complex /kg mouse | 64 µmol complex /kg mouse | difference in cytotoxicity, malignant vs normal cells (HUVEC [6]; malignant cell lines vs HUVEC and HUVSMC): ~10 fold; IC50 (HUVEC [6]; read-out: IC50 for normal HUVEC cells): ~100 µM; IC50 (HUVSMC [7]): ~100 µM; mean growth percentage, whole panel (NCI-60 panel): 80%; DNA cleavage, dependence on GSH ([8]; presence or absence of GSH, Fig. 3A): only show DNA cleavage when GSH is present; DNA cleavage when O2 is absent ([8]; with GSH, anaerobic vs aerobic): appreciably enhanced; apoptosis in HUVEC (HUVEC [9]): did not show apoptosis; apoptosis in HUVSMC (HUVSMC [10]): did not show apoptosis; Bax level [11]: significantly increased; kinase signaling (pAKT, pEGFR, PI3K, pRb, CDK4, cyclinB1, bcl2) [11]: generalized decrease in kinase signaling
13 | cis-Pt(NH3)2Cl2 [cisplatin, reference compound] |  |  |  |  | potentiation of cytotoxicity under hypoxic conditions (H358 cells): neither of which showed significant potentiation; LD50 (mice; murine acute toxicity): ~ 57 µmol/kg
14 | ΔΛ-[(phen)2Ru(tatpp)Ru(phen)2]^4+ [ΔΛ-4^4+] | 15.3 ± 1.5 µM | 18.6 ± 1.5 µM | 66 mg complex /kg mouse | 43 µmol complex /kg mouse | 
